From ChEMBL document CHEMBL1128106, “Oligonucleotide duplex stability controlled by the 7-substituents of 7-deazaguanine bases” (Bioorg Med Chem Lett, 1995)

Columns and labels:
[1] = Half life (t) of enzymatic phosphodiester hydrolysis of compound towards calf spleen (CS-PDE) at a concentration of 20 microg; type: ADME, Bos taurus; conditions: cattle, calf spleen phosphodiesterase (CS-PDE)
[2] = Half life (t) of enzymatic phosphodiester hydrolysis of compound towards snake venom (SV-PDE) at a concentration of 4 microg; type: ADME; conditions: serpentes, snake venom phosphodiesterase (SV-PDE)

Structure (SMILES) | half-life [1] | half-life [2]
COP(=O)(OC[C@H]1O[C@@H](n2ccc(N)nc2=O)C[C@@H]1OP(=O)(O)OC[C@H]1O[C@@H](n2cc(I)c3c(=O)[nH]c(N)nc32)C[C@@H]1OP(=O)(O)OC[C@H]1O[C@@H](n2ccc(N)nc2=O)C[C@@H]1O)O[C@H]1C[C@H](n2cc(I)c3c(=O)[nH]c(N)nc32)O[C@@H]1COP(=O)(O)O[C@H]1C[C@H](n2ccc(N)nc2=O)O[C@@H]1COP(=O)(O)O[C@H]1C[C@H](n2cc(I)c3c(=O)[nH]c(N)nc32)O[C@@H]1COP(=O)(O)O[C@H]1C[C@H](n2ccc(N)nc2=O)O[C@@H]1COP(=O)(O)O[C@H]1C[C@H](n2cc(I)c3c(=O)[nH]c(N)nc32)O[C@@H]1COP(=O)(O)O (some centres not stated) | > 1200 min | 17 min
Nc1ccn([C@H]2C[C@H](OP(=O)(O)OC[C@H]3O[C@@H](n4cnc5c(=O)[nH]c(N)nc54)C[C@@H]3OP(=O)(O)OC[C@H]3O[C@@H](n4ccc(N)nc4=O)C[C@@H]3OP(=O)(O)OC[C@H]3O[C@@H](n4cnc5c(=O)[nH]c(N)nc54)C[C@@H]3OP(=O)(O)OC[C@H]3O[C@@H](n4ccc(N)nc4=O)C[C@@H]3OP(=O)(O)OC[C@H]3O[C@@H](n4cnc5c(=O)[nH]c(N)nc54)CC3OP(=O)(O)OC[C@H]3O[C@@H](n4ccc(N)nc4=O)C[C@@H]3O)[C@@H](COP(=O)(O)O[C@H]3C[C@H](n4cnc5c(=O)[nH]c(N)nc54)O[C@@H]3COP(=O)(O)O)O2)c(=O)n1 (some centres not stated) | 82 min | 2.5 min
COP(=O)(OC[C@H]1O[C@@H](n2ccc(N)nc2=O)C[C@@H]1OP(=O)(O)OC[C@H]1O[C@@H](n2cc(C)c3c(=O)[nH]c(N)nc32)C[C@@H]1OP(=O)(O)OC[C@H]1O[C@@H](n2ccc(N)nc2=O)C[C@@H]1O)O[C@H]1C[C@H](n2cc(C)c3c(=O)[nH]c(N)nc32)O[C@@H]1COP(=O)(O)O[C@H]1C[C@H](n2ccc(N)nc2=O)O[C@@H]1COP(=O)(O)O[C@H]1C[C@H](n2cc(C)c3c(=O)[nH]c(N)nc32)O[C@@H]1COP(=O)(O)O[C@H]1C[C@H](n2ccc(N)nc2=O)O[C@@H]1COP(=O)(O)O[C@H]1C[C@H](n2cc(C)c3c(=O)[nH]c(N)nc32)O[C@@H]1COP(=O)(O)O (some centres not stated) | > 1200 min | 16 min
COP(=O)(OC[C@H]1O[C@@H](n2ccc(N)nc2=O)C[C@@H]1OP(=O)(O)OC[C@H]1O[C@@H](n2ccc3c(=O)[nH]c(N)nc32)C[C@@H]1OP(=O)(O)OC[C@H]1O[C@@H](n2ccc(N)nc2=O)C[C@@H]1O)O[C@H]1C[C@H](n2ccc3c(=O)[nH]c(N)nc32)O[C@@H]1COP(=O)(O)O[C@H]1C[C@H](n2ccc(N)nc2=O)O[C@@H]1COP(=O)(O)O[C@H]1C[C@H](n2ccc3c(=O)[nH]c(N)nc32)O[C@@H]1COP(=O)(O)O[C@H]1C[C@H](n2ccc(N)nc2=O)O[C@@H]1COP(=O)(O)O[C@H]1C[C@H](n2ccc3c(=O)[nH]c(N)nc32)O[C@@H]1COP(=O)(O)O (some centres not stated) | ~1000 min | 1.3 min
Nc1nc2c(ncn2[C@H]2C[C@H](O)[C@@H](COP(=O)(O)O[C@H]3C[C@H](n4cc(I)c5c(=O)[nH]c(N)nc54)O[C@@H]3COP(=O)(O)O[C@H]3C[C@H](n4cc(I)c5c(=O)[nH]c(N)nc54)O[C@@H]3COP(=O)(O)O[C@H]3C[C@H](n4cc(I)c5c(=O)[nH]c(N)nc54)O[C@@H]3COP(=O)(O)O[C@H]3C[C@H](n4cc(I)c5c(=O)[nH]c(N)nc54)O[C@@H]3COP(=O)(O)O[C@H]3C[C@H](n4cc(I)c5c(=O)[nH]c(N)nc54)O[C@@H]3COP(=O)(O)O)O2)c(=O)[nH]1 | > 1200 min | 26 min
Nc1nc2c(ccn2[C@H]2C[C@H](OP(=O)(O)OC[C@H]3O[C@@H](n4ccc5c(=O)[nH]c(N)nc54)C[C@@H]3OP(=O)(O)OC[C@H]3O[C@@H](n4ccc5c(=O)[nH]c(N)nc54)C[C@@H]3OP(=O)(O)OC[C@H]3O[C@@H](n4ccc5c(=O)[nH]c(N)nc54)C[C@@H]3OP(=O)(O)OC[C@H]3O[C@@H](n4ccc5c(=O)[nH]c(N)nc54)C[C@@H]3OP(=O)(O)OC[C@H]3O[C@@H](n4cnc5c(=O)[nH]c(N)nc54)C[C@@H]3O)[C@@H](COP(=O)(O)O)O2)c(=O)[nH]1 | > 1200 min | 2.5 min
